Data taken from ChEMBL document CHEMBL4715869, “N-(Pyrimidin-2-yl)-1,2,3,4-tetrahydroisoquinolin-6-amine Derivatives as Selective Janus Kinase 2 Inhibitors for the Treatment of Myeloproliferative Neoplasms” (J Med Chem, 2020).
Calls of active or inactive are those of the source. The rule behind the calls is not given here.

Experiments:
SET-2 [1] = test: Induction of apoptosis in human SET-2 cells assessed as early apoptotic cells at 1.6 uM incubated for 24 hrs by Annexin V/PI staining based flow cytometric analysis (reference value: 1.47 %); format: functional
[2] = Oral bioavailability in Sprague-Dawley rat at 5 mg/kg administered via gavage measured upto 24 hrs by LC/MS/MS analysis; format: ADME, organism-based; conditions: in vivo
SET-2 [3] = test: Induction of apoptosis in human SET-2 cells assessed as late apoptotic cells at 0.2 uM incubated for 24 hrs by Annexin V/PI staining based flow cytometric analysis (reference value: 1.52%); format: functional
[4] = molecular target: Receptor-type tyrosine-protein kinase FLT3 (Homo sapiens, UniProt P36888, D835Y); test: Inhibition of recombinant human FLT3 D835Y mutant (564 to end residues) using EAIYAAPFAKKK as substrate at 40 mins in presence of [gamma-33ATP] by scintillation counting based radiometry assay
[5] = Selectivity index, ratio of IC50 for inhibition of recombinant human JAK3 (781 to end residues) to IC50 for inhibition of recombinant human JAK2 (808 to end residues)
[6] = molecular target: Tyrosine-protein kinase JAK1 (Homo sapiens, UniProt P23458); test: Inhibition of human JAK1 (866 to end residues) using GEEPLYWSFPAKKK as substrate after 40 mins by [gamma-33ATP] radiometric assay
[7] = Apparent clearance in Sprague-Dawley rat at 5 mg/kg, iv administered […] measured upto 24 hrs by LC/MS/MS analysis; format: ADME, organism-based; conditions: in vivo, read-out: CL(app) (converted)
SET-2 [8] = test: Induction of apoptosis in human SET-2 cells assessed as live cells at 1.6 uM incubated for 24 hrs by Annexin V/PI staining based flow cytometric analysis (reference value: 96.23 %); format: functional
[9] = Intrinsic clearance in rat liver microsomes; format: ADME, Microsome; conditions: read-out: CLH (converted)
[10] = molecular target: Tyrosine-protein kinase JAK2 (Homo sapiens, UniProt O60674); test: Inhibition of recombinant human JAK2 (808 to end residues) KTFCGTPEYLAPEVRREPRILSEEEQEMFRDFDYIADWC as substrate measured after 40 mins in presence of [gamm33P]ATP by scintillation counting method
Vero = test: Cytotoxicity against African green monkey Vero cells assessed as reduction in cell viability incubated for 72 hrs by MTT assay; format: cell-based; conditions: Chlorocebus sabaeus
SET-2 [11] = test: Induction of cell cycle arrest in human SET2 cells assessed as accumulation at G0/G1 phase incubated for 24 hrs by propidium iodide staining based flow cytometry; format: functional; conditions: dose 10-160 nM
[12] = Selectivity index, ratio of IC50 for inhibition of recombinant human FLT3 D835Y mutant (564 to end residues) to IC50 for inhibition of recombinant human JAK2 (808 to end residues)
[13] = molecular target: Receptor-type tyrosine-protein kinase FLT3 (Homo sapiens) (UniProt P36888); test: Inhibition of FLT3 in human SET2 cells assessed as decrease in AKT phosphorylation at 1 to 1000 nM after 2 hrs by Western blot analysis; format: cell-based; conditions: dose 1-1000 nM
SET-2 [14] = test: Induction of apoptosis in human SET-2 cells assessed as late apoptotic cells at 0.8 uM incubated for 24 hrs by Annexin V/PI staining based flow cytometric analysis (reference value: 1.52%); format: functional
SET-2 [15] = test: Induction of apoptosis in human SET-2 cells assessed as early apoptotic cells at 0.4 uM incubated for 24 hrs by Annexin V/PI staining based flow cytometric analysis (reference value: 1.47 %); format: functional
[16] = Tmax in male Sprague-Dawley rat at 5 mg/kg, po administered via gavage measured upto 24 hrs by LC/MS/MS analysis; format: ADME, organism-based; conditions: in vivo
[17] = molecular target: T1, Signal transducer and transcription activator 6 (Mus musculus) (UniProt P52633); test: Inhibition of STAT6 phosphorylation in mouse BAF3 cells at 1000 nM after 2 hrs by Western blot analysis; format: cell-based
T1 sequence (whole entry): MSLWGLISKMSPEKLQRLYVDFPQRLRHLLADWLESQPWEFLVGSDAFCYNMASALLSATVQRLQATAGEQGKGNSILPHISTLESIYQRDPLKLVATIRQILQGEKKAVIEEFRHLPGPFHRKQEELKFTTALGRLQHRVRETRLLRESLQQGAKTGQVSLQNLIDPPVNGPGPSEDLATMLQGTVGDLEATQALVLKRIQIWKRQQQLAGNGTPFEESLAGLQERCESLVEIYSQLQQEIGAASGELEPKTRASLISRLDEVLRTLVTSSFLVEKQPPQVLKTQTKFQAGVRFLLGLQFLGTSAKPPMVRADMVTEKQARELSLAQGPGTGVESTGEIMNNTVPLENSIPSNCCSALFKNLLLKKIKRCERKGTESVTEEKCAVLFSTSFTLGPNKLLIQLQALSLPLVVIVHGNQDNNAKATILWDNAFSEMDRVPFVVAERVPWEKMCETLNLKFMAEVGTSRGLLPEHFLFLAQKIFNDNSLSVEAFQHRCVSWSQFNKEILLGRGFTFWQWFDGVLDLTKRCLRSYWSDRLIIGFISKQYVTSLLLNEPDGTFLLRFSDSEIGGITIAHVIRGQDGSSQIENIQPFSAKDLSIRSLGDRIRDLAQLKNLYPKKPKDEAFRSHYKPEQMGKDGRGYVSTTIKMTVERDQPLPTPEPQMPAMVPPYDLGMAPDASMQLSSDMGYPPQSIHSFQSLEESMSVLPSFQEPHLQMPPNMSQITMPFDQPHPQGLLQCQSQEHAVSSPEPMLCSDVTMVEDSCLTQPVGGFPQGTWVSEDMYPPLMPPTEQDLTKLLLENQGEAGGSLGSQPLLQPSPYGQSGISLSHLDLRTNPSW

SET-2 [18] = test: Induction of apoptosis in human SET-2 cells assessed as late apoptotic cells at 1.6 uM incubated for 24 hrs by Annexin V/PI staining based flow cytometric analysis (reference value: 1.52%); format: functional
SET-2 [19] = test: Induction of apoptosis in human SET-2 cells assessed as live cells at 0.8 uM incubated for 24 hrs by Annexin V/PI staining based flow cytometric analysis (reference value: 96.23 %); format: functional
[20] = Toxicity in NOD/SCID mouse xenografted with human SET2 cells assessed as animal death at 15 to 60 mg/kg, po qd administered for 16 days and measured after 36 days; format: organism-based; conditions: in vivo, 864 h, dose 15-60 mg/kg, time 36 day
[21] = Toxicity in Balb/c mouse assessed as effect on hematocrit at 30 to 60 mg/kg, po administered daily for 14 days; format: organism-based; conditions: in vivo, 336 h, dose 30-60 mg/kg, time 14 day
SET-2 [22] = test: Induction of apoptosis in human SET-2 cells assessed as necrotic cells at 0.2 uM incubated for 24 hrs by Annexin V/PI staining based flow cytometric analysis (reference value: 0.78%); format: functional
L02 = test: Cytotoxicity against human L02 cells assessed as reduction in cell viability incubated for 72 hrs by MTT assay; format: cell-based; conditions: L02, 72 h
[23] = test system: Tyrosine-protein kinase JAK2 (Mus musculus), Q62120 [V617F]; test: Inhibition of JAK2 V617F mutant in mouse BAF3 cells assessed as decrease in STAT5 phosphorylation at 50 nM after 2 hrs by Western blot analysis; format: cell-based
Chain of Tyrosine-protein kinase JAK2 (Mus musculus), Q62120 [V617F] (Q62120 as listed by the source): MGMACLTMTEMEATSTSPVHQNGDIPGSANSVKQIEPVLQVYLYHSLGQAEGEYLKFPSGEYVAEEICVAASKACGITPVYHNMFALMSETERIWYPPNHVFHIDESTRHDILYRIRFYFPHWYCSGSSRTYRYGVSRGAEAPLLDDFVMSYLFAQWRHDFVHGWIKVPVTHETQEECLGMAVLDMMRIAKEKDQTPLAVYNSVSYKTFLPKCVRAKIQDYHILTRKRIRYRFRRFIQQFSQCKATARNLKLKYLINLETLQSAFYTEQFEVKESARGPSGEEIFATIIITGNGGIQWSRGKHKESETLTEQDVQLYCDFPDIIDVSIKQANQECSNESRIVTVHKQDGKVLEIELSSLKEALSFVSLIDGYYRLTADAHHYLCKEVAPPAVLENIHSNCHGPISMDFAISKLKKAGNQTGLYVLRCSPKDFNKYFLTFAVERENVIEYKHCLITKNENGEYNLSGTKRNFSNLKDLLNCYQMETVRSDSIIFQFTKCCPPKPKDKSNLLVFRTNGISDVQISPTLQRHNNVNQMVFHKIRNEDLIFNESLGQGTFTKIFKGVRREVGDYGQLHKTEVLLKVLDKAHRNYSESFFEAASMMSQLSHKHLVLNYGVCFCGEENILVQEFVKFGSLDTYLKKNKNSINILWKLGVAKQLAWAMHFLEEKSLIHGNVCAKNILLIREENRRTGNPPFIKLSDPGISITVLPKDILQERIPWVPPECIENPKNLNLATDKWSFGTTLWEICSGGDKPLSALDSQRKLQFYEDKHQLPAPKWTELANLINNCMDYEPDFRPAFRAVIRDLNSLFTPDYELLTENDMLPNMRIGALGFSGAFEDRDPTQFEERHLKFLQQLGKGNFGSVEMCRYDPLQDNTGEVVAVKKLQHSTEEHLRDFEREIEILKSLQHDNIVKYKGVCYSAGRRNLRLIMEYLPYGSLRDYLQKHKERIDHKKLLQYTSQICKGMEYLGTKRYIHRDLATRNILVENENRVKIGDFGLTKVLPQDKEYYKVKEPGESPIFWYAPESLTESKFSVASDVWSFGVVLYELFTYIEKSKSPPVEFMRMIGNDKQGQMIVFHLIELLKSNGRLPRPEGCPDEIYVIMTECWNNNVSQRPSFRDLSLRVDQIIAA

Chain of Tyrosine-protein kinase JAK1 (P23458 whole entry): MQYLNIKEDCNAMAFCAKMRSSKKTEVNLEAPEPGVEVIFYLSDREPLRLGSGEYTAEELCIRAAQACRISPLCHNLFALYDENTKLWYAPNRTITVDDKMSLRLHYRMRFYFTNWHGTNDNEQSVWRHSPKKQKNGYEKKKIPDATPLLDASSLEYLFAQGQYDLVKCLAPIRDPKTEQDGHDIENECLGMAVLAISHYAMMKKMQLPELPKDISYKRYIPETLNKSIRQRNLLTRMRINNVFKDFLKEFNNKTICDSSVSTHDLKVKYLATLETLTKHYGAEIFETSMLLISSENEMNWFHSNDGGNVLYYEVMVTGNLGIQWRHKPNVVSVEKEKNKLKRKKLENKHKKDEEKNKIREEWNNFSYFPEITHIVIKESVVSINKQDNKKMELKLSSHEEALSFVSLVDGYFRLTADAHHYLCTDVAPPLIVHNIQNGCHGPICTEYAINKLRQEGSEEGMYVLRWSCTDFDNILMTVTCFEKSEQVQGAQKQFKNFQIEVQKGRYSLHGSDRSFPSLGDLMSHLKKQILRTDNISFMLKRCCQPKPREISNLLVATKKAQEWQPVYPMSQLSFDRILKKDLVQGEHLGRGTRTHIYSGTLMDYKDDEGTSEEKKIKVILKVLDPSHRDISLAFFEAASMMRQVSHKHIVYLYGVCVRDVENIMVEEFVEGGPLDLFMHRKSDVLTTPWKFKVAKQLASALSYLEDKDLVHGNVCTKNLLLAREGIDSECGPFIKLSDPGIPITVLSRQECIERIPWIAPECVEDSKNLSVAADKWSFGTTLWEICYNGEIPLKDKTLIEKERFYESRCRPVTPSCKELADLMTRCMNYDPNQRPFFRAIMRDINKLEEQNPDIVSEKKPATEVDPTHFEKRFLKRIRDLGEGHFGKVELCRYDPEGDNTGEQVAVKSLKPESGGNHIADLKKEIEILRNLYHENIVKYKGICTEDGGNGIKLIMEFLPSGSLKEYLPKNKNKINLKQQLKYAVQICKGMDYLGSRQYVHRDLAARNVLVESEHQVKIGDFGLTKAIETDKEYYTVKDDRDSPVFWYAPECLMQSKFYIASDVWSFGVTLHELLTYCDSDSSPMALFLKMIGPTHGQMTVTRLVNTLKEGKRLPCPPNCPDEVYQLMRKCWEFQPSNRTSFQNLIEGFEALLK
Chain of Tyrosine-protein kinase JAK2 (O60674 whole entry): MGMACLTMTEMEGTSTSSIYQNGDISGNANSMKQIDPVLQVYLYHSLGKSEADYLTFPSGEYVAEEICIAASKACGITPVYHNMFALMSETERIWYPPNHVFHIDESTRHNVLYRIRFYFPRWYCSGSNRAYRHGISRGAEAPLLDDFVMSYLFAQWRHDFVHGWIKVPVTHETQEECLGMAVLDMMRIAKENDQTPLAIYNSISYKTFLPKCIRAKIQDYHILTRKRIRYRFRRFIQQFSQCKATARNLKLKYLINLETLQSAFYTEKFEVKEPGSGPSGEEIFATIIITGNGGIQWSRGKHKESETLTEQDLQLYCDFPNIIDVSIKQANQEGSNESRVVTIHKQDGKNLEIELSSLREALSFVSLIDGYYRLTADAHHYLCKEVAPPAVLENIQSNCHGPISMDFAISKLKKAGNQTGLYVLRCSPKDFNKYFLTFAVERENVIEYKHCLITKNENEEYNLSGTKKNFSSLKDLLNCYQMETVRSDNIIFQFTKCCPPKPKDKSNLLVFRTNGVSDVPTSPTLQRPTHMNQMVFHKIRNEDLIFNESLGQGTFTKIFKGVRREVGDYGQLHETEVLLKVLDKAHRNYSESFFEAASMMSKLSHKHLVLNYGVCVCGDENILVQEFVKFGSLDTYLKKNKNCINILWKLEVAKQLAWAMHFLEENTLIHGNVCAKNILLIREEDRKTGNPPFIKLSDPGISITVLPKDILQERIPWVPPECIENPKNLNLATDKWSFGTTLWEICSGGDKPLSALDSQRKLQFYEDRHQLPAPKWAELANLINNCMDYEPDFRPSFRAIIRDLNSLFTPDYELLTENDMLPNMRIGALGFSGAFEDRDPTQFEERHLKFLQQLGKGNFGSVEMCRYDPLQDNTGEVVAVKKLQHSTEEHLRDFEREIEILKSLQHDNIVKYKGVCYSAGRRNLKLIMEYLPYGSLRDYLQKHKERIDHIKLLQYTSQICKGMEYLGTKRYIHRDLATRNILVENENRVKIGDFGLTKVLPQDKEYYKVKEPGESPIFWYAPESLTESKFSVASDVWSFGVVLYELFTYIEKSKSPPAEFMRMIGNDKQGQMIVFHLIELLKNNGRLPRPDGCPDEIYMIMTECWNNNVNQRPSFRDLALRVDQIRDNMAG

Cc1cnc(Nc2ccc3c(c2)CCN(C(=O)/C=C/CN(C)C)C3)nc1-c1cnn(C(C)C)c1
Activity (SET-2 [1]): 27.3% | bioavailability [2]: 25.7% | Activity (SET-2 [3]): 5.66% | IC50 [4]: 0.062 µM | Ratio IC50 [5]: 31 | IC50 [6]: 0.042 µM | clearance [7]: 83.5 mL/min/kg | Activity (SET-2 [8]): 23.03% | CLint scaled [9]: 423 mL/min/kg | IC50 [10]: 0.003 µM | IC50 (Vero): 6.75 µM | Activity (SET-2 [11]): Dose-dependent effect | Ratio IC50 [12]: 20.7 | inhibition [13]: inactive | Activity (SET-2 [14]): 40.19% | Activity (SET-2 [15]): 5.92% | Tmax [16]: 54 min | inhibition [17]: inactive | Activity (SET-2 [18]): 45.54% | Activity (SET-2 [19]): 49.33% | Activity [20]: Toxic | Activity [21]: Toxic | Activity (SET-2 [22]): 0.63% | IC50 (L02): 7.22 µM | inhibition [23]: Active
